Laboratory results as given in patent publication US7846722B2 (priority 2001, dated 2010).

Target: BoNT/A (Clostridium botulinum, UniProt P0DPI0)
Conditions: cited from earlier work

Chain of BoNT/A (P0DPI0 whole entry, looked up): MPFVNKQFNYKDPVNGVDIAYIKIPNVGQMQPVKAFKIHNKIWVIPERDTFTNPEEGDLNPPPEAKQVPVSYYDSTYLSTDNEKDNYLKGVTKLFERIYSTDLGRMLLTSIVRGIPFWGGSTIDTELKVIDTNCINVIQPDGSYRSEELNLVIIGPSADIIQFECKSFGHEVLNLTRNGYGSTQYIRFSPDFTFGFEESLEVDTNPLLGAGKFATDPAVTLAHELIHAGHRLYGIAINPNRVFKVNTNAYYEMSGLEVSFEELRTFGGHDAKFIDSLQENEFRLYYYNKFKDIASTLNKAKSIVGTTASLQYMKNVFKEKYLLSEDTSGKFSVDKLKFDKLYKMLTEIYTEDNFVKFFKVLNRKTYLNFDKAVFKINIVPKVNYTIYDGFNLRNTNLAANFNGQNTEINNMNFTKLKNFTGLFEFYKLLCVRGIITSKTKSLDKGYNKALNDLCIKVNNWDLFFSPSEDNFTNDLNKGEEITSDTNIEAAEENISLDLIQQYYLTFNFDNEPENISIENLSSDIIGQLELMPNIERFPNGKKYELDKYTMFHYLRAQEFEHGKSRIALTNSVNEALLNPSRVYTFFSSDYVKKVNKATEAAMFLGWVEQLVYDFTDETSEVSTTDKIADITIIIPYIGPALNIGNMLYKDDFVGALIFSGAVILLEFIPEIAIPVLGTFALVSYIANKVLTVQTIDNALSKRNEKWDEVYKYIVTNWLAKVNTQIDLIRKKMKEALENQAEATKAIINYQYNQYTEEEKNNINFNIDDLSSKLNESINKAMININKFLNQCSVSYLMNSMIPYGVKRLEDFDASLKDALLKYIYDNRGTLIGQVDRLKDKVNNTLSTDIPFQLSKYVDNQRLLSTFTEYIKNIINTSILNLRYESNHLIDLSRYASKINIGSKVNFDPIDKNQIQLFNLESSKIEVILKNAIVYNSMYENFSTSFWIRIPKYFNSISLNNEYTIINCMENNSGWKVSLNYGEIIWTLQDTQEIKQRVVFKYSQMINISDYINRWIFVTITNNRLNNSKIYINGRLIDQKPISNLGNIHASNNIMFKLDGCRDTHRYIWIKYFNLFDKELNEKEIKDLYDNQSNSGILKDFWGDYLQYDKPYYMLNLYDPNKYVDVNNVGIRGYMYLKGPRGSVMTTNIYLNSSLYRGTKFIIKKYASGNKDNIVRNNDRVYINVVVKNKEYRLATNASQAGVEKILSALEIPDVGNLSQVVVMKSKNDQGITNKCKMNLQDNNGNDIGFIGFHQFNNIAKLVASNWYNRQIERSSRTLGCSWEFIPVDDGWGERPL

| Compound | Relative Rate |
| --- | --- |
| SNKTRIDEANQRBTKML [Peptide A13B] | 0.79 |
| SNKTRIDEANQRATKML [[1-17]] | 1.00 |
| SNKTRIDEANQRABKML [Peptide T14B] | 1.20 |
| SNKTRIDEANBRATKML [Peptide Q11B] | 0.25 |
| SNKTRIDEANQRATKXL [Peptide M16X] | 1.20 |
| SNKTRIDEBNQRATKML [Peptide A9B] | 0.38 |

Tested on: Neuro-2A cells
Format: cell-based, mouse
Conditions: not given

| Compound | BoNT/A SNAP25197-cleavage product (uptake of BoNT/A) after differentiation reagent treatment |
| --- | --- |
| CC1=C(/C=C/C(C)=C/C=C/C(C)=C/C(=O)O)C(C)(C)CCC1 [all trans retinoic acid, All Trans-Retinoic acid] | increase |
